Experimental data published in patent US20230165873A1, “Methods of Use for Single Molecule Compounds Providing Multi-Target Inhibition to Treat Covid 19” (priority 2020, published 2023).

What was measured:
PI3K beta = PI3K beta (Homo sapiens, UniProt P42338); experiment: PI3K beta in vitro inhibition; format: biochemical
Method: (§1) The kinase or bromodomain inhibitory activity of a compound of the invention can be determined by routine methods known to the skilled artisan without undue experimentation, or by procuring relevant analysis by a commercial vendor offering such services. […] In vivo, PI3K inhibition can be determined from target tissue biopsies by standard tissue processing in which cells are disrupted and Western Blot analysis is performed to determine the presence or absence of pAKT (substrate of PI3K) relative to a control sample. PI3K inhibition assays and BTK inhibition assays are known in the art and can be procured commercially through vendors such as Reaction Biology (Malvern, PA). The activity of a compound of the invention as an inhibitor of a bromodomain-containing protein, such as a BET protein, including BRD2, BRD3, BRD4, and/or BRDT, or an isoform or mutant thereof, may be determined in vitro, in vivo, or in a cell line. In vitro assays include assays that determine inhibition of bromodomain-containing proteins. Alternatively, inhibitor binding may be determined by running a competition experiment where a provided compound is incubated with a bromodomain-containing protein, such as a BET protein bound to known ligands, labeled or unlabeled. In vitro bromodomain inhibition assays can be performed using Alpha Screen Technology (Perkin Elmer Life and Analytical Sciences, Shelton, CT). In vivo bromodomain inhibition can be determined indirectly by evaluating the amount of a protein whose gene transcription is influenced or controlled by the bromodomain protein, for example, MYCN protein transcription is controlled by BRD4 (J.E. Delmore et al., Cell 2011, 146, 904-917; A. Puissant, Cancer Discov. 2013, 3, 308-323).

PI3K alpha = PI3K alpha (Homo sapiens, UniProt P42336); experiment: PI3K alpha in vitro inhibition; format: biochemical
Sequence of PI3K alpha (P42336 whole entry): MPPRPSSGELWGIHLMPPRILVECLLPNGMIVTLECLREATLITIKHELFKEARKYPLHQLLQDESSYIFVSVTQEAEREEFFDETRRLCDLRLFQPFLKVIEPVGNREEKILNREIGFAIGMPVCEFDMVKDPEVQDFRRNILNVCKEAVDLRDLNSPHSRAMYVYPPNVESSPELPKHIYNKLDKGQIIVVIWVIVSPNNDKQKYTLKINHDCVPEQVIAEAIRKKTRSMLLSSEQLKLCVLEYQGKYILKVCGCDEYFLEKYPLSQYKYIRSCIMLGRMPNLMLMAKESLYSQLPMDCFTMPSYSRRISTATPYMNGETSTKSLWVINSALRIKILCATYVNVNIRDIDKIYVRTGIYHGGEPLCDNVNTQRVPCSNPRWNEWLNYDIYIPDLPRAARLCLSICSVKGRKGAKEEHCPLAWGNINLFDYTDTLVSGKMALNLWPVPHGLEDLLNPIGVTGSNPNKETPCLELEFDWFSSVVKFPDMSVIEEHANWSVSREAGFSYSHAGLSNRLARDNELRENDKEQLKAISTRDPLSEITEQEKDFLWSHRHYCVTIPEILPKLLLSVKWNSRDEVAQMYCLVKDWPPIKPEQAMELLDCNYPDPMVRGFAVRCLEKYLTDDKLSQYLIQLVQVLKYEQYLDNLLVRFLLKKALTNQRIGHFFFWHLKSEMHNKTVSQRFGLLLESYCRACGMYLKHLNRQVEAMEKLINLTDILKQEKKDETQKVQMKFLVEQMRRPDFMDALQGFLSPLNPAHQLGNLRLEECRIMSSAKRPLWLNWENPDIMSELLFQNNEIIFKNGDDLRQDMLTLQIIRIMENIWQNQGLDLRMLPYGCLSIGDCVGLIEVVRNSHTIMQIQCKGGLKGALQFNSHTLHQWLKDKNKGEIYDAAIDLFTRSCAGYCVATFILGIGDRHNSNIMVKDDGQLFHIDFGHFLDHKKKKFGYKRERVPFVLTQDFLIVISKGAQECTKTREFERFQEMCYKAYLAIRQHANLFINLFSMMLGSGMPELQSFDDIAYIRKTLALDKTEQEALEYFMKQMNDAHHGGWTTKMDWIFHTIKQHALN
Sequence of PI3K alpha (P27986 whole entry partner): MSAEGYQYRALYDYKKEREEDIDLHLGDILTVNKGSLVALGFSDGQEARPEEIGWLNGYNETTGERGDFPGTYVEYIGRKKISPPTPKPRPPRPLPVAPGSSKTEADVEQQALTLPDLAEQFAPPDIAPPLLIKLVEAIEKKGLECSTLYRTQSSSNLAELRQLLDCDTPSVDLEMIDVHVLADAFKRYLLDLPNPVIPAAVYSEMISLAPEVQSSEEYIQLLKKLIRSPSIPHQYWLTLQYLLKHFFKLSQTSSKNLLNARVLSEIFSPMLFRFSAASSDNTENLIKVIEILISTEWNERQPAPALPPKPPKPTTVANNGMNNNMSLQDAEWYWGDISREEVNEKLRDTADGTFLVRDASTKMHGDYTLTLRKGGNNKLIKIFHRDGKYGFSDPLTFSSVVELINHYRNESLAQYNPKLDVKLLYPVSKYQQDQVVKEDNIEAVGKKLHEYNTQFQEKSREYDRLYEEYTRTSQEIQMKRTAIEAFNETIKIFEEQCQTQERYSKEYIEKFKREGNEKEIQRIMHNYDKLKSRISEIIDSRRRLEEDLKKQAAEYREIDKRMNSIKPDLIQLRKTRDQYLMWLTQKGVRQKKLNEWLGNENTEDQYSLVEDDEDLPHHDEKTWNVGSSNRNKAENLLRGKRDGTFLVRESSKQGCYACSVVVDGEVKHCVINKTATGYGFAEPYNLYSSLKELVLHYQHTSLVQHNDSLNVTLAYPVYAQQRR
Method: as §1

BRD4-2 = molecular target: T1, BRD4-2 (Homo sapiens, UniProt O60885); experiment: BRD4-2 in vitro inhibition; format: binding
T1 construct: BRD4-2
Method: as §1

BRD4-1 = molecular target: T2, BRD4-1 (Homo sapiens, UniProt O60885); experiment: BRD4-1 in vitro inhibition; format: binding
T2 construct: BRD4-1
Method: as §1

CDK4 cyclinD1 = CDK4 cyclinD1 (Homo sapiens, UniProt P11802); experiment: CDK4 cyclinD1 in vitro inhibition; format: biochemical
Method: as §1
(§2) IC50 inhibition data against the indicated targets were determined for compounds of the invention using standard in vitro assays (Tables 8 and 9).

CDK6 cyclinD1 = CDK6 cyclinD1 (Homo sapiens, UniProt Q00534); experiment: CDK6 cyclinD1 in vitro inhibition; format: biochemical
Method: as §1, §2

PI3K gamma = PI3K gamma (Homo sapiens, UniProt P48736); experiment: PI3K gamma in vitro inhibition; format: biochemical; details: read-out: IC50 inhibition PI3K gamma
Sequence of PI3K gamma (P48736 whole entry): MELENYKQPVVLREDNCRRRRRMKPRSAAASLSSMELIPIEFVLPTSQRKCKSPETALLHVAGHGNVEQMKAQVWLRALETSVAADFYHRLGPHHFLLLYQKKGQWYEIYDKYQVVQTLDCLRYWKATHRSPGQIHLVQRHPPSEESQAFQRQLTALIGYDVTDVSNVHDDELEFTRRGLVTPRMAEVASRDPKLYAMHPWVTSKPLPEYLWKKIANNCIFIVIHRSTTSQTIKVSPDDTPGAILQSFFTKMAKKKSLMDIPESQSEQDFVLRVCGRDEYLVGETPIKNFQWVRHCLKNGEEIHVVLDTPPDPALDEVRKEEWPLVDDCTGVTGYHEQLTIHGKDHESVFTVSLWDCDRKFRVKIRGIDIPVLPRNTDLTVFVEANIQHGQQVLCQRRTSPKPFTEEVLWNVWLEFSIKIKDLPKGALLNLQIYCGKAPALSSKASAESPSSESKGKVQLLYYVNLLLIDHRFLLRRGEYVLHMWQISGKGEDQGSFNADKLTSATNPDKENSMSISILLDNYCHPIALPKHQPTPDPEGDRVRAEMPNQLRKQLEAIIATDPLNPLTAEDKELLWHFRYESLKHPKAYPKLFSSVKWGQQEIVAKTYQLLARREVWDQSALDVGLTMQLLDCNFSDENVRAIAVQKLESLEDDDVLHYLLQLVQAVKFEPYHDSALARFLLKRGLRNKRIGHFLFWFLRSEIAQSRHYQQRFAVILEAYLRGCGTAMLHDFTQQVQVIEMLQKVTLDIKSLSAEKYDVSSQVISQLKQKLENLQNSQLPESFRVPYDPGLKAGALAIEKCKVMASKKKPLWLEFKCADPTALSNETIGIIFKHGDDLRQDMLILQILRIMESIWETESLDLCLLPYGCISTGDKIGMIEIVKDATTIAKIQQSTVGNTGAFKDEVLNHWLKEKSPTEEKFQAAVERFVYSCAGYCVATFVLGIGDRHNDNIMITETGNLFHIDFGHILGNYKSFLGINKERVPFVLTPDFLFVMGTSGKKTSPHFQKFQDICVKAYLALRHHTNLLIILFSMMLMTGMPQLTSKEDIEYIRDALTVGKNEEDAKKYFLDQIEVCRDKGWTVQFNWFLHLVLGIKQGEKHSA
Method: as §1, §2

BTK = BTK (Homo sapiens, UniProt Q06187); experiment: BTK in vitro inhibition; format: biochemical
Sequence of BTK (Q06187 whole entry): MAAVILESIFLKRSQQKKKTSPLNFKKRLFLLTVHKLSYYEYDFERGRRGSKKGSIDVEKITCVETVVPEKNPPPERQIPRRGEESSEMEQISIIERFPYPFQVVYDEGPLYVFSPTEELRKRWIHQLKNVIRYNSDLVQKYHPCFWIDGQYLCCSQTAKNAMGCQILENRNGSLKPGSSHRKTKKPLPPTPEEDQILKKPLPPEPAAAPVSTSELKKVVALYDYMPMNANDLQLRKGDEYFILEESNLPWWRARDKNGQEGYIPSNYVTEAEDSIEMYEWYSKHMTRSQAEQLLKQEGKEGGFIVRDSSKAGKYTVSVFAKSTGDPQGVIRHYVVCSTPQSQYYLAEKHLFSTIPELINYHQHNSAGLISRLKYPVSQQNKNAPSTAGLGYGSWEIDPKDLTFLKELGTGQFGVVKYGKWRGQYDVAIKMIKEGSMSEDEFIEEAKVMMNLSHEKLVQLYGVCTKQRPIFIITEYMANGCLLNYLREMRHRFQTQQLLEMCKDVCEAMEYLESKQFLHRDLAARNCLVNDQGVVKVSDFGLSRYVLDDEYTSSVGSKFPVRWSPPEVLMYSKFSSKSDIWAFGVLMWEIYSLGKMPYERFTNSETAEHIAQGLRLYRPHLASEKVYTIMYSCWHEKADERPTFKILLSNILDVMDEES
Method: as §1, §2

BTK C481S = BTK C481S (Homo sapiens, UniProt Q06187, C481S); experiment: BTK C481S in vitro inhibition; format: biochemical
Sequence of BTK C481S (Q06187 whole entry C481S): as the sequence (Q06187 whole entry) above, with C481S counted along it
Method: as §1, §2

Sequence of PI3K beta (P42338 whole entry): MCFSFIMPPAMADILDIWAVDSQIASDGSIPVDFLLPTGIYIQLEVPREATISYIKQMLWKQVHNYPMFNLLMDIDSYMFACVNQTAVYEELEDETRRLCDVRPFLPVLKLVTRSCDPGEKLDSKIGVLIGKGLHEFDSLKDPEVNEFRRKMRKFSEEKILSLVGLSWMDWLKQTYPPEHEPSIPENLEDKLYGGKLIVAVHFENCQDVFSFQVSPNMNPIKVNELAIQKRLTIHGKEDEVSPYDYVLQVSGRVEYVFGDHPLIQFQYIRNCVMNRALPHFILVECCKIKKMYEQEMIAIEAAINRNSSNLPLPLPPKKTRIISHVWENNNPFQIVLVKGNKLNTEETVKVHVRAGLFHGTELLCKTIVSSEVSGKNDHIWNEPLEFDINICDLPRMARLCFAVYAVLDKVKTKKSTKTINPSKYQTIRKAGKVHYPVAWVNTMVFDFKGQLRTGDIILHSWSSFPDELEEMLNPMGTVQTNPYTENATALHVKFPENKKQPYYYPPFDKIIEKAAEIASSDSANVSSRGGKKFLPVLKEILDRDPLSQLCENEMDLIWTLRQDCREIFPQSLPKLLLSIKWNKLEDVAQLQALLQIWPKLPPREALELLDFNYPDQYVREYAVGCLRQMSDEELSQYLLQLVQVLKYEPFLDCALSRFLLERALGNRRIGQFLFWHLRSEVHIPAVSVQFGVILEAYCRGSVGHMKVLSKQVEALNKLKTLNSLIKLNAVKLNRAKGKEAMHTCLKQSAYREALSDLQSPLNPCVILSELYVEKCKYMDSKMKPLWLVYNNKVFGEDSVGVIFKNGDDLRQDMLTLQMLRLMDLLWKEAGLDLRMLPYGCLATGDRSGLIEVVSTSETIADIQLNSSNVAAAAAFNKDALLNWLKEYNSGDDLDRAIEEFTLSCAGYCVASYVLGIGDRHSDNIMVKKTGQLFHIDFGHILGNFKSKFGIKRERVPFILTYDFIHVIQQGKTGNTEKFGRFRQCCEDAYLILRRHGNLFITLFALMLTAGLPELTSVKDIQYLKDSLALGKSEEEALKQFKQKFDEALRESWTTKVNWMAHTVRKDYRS
Sequence of PI3K beta (P27986 whole entry partner): as the sequence (P27986 whole entry partner) above

| Structure (SMILES) | IC50 (PI3K beta) [nM] | IC50 (PI3K alpha) [nM] | IC50 (BRD4-2) [nM] | IC50 (BRD4-1) [nM] | IC50 (CDK4 cyclinD1) [nM] | IC50 (CDK6 cyclinD1) [nM] | IC50 (PI3K gamma) [nM] | IC50 (BTK) [nM] | IC50 (BTK C481S) [nM] |
| --- | --- | --- | --- | --- | --- | --- | --- | --- | --- |
| CC(C)n1c(C(=O)N(C)C)cc2cnc(Nc3ccc(-c4csc5c(=O)cc(N6CCOCC6)oc45)cc3)nc21 [Compound 25] | < 500 | < 500 | < 500 | < 500 | < 500 | < 500 | 1000 to 10000 | – | – |
| C=CC(=O)N1CCOc2ccc(-c3csc4c(=O)cc(N5CCNCC5)oc34)cc21 [Compound 26] | 1000 to 10000 | 10000 to 45000 | – | < 500 | – | – | > 45000 | < 500 | 10000 to 45000 |
| C=CC(=O)Nc1cccc(-c2csc3c(=O)cc(N4CCNCC4)oc23)c1 [Compound 27] | > 45000 | > 45000 | – | 500 to 1000 | – | – | > 45000 | – | 10000 to 45000 |
| C=CC(=O)N1CCOc2ccc(-c3csc4c(=O)cc(N5CCN(C)CC5)oc34)cc21 [Compound 28] | 1000 to 10000 | 10000 to 45000 | 10000 to 45000 | – | – | – | > 45000 | < 500 | – |
| C=CC(=O)N1CCOc2ccc(-c3csc4c(=O)cc(N5CCN(C(=O)OC(C)(C)C)CC5)oc34)cc21 [Compound 29] | 1000 to 10000 | 10000 to 45000 | – | 500 to 1000 | – | – | 10000 to 45000 | < 500 | 10000 to 45000 |
| C=CC(=O)Nc1ccc(-c2csc3c(=O)cc(N4CCOCC4)oc23)cc1 [Compound 30] | < 500 | < 500 | < 500 | 1000 to 10000 | – | – | 500 to 1000 | 10000 to 45000 | > 45000 |
| C=CC(=O)Nc1cccc(-c2csc3c(=O)cc(N4CCOCC4)oc23)c1 [Compound 31] | < 500 | < 500 | 1000 to 10000 | 500 to 1000 | – | – | 1000 to 10000 | 500 to 1000 | > 45000 |
| C=CC(=O)N1CCOc2ccc(-c3csc4c(=O)cc(N5CCOCC5)oc34)cc21 [Compound 32] | < 500 | < 500 | < 500 | < 500 | – | – | < 500 | < 500 | 10000 to 45000 |
| COc1cc(NC(C)=O)cc(-c2csc3c(=O)cc(N4CCOCC4)oc23)c1 [Compound 33] | < 500 | < 500 | 1000 to 10000 | < 500 | – | – | < 500 | 500 to 1000 | > 45000 |
| CCCCC/C=C/C(=O)Nc1cccc(-c2csc3c(=O)cc(N4CCOCC4)oc23)c1 [Compound 34] | 1000 to 10000 | – | 10000 to 45000 | – | – | – | 10000 to 45000 | > 45000 | > 45000 |
| N#C/C(=C\C1CC1)C(=O)Nc1cccc(-c2csc3c(=O)cc(N4CCOCC4)oc23)c1 [Compound 35] | < 500 | < 500 | 500 to 1000 | – | – | – | – | 10000 to 45000 | 10000 to 45000 |
| C=CC(=O)Nc1cc(-c2csc3c(=O)cc(N4CCOCC4)oc23)ccc1OC [Compound 36] | < 500 | < 500 | 500 to 1000 | < 500 | – | – | 1000 to 10000 | 1000 to 10000 | 1000 to 10000 |
| C/C=C(/C)C(=O)N1CCOc2ccc(-c3csc4c(=O)cc(N5CCOCC5)oc34)cc21 [Compound 37] | < 500 | < 500 | 500 to 1000 | 500 to 1000 | – | – | 500 to 1000 | 10000 to 45000 | > 45000 |
| C/C=C(\C)C(=O)N1CCOc2ccc(-c3csc4c(=O)cc(N5CCOCC5)oc34)cc21 [Compound 38] | < 500 | < 500 | 500 to 1000 | < 500 | – | – | 1000 to 10000 | > 45000 | > 45000 |
| C/C=C/C(=O)N1CCOc2ccc(-c3csc4c(=O)cc(N5CCOCC5)oc34)cc21 [Compound 39] | < 500 | < 500 | < 500 | < 500 | – | – | 1000 to 10000 | 10000 to 45000 | > 45000 |
| O=C(C1=CCCC1)N1CCOc2ccc(-c3csc4c(=O)cc(N5CCOCC5)oc34)cc21 [Compound 40] | < 500 | < 500 | < 500 | < 500 | – | – | 1000 to 10000 | > 45000 | 10000 to 45000 |
| O=C(C1=CCCC1)N1CCOc2ccc(-c3csc4c(=O)cc(N5CCOCC5)oc34)cc21 [Compound 41] | – | – | – | – | – | – | – | 1000 to 10000 | – |
| C=CS(=O)(=O)N1CCCc2ccc(-c3csc4c(=O)cc(N5CCOCC5)oc34)cc21 [Compound 44] | < 500 | < 500 | < 500 | < 500 | – | – | < 500 | < 500 | 10000 to 45000 |
| C=CS(=O)(=O)Nc1cc(-c2csc3c(=O)cc(N4CCOCC4)oc23)ccc1OC [Compound 45] | < 500 | < 500 | < 500 | < 500 | – | – | < 500 | < 500 | > 45000 |
| C=CS(=O)(=O)Nc1cccc(-c2csc3c(=O)cc(N4CCOCC4)oc23)c1 [Compound 46] | < 500 | < 500 | < 500 | < 500 | – | – | < 500 | < 500 | > 45000 |
| C=CS(=O)(=O)N(C)c1cccc(-c2csc3c(=O)cc(N4CCOCC4)oc23)c1 [Compound 47] | < 500 | < 500 | 500 to 1000 | < 500 | – | – | < 500 | < 500 | > 45000 |
| C=CS(=O)(=O)N(C)c1cc(-c2csc3c(=O)cc(N4CCOCC4)oc23)ccc1OC [Compound 48] | < 500 | < 500 | < 500 | < 500 | – | – | < 500 | < 500 | > 45000 |
| C=CS(=O)(=O)N(c1cc(-c2csc3c(=O)cc(N4CCOCC4)oc23)ccc1OC)S(=O)(=O)C=C [Compound 49] | < 500 | < 500 | 1000 to 10000 | < 500 | – | – | < 500 | < 500 | 10000 to 45000 |
| C=CS(=O)(=O)N(c1cccc(-c2csc3c(=O)cc(N4CCOCC4)oc23)c1)S(=O)(=O)C=C [Compound 50] | < 500 | < 500 | < 500 | < 500 | – | – | < 500 | < 500 | 10000 to 45000 |
